Test results published in a melting point compilation (Tetko et al.; mined from patent text by program, amines drawn as free bases though some values may be those of a salt).

Row | Structure (SMILES) | melting point
1 | CC1C(OC(=O)CCCCCCCCC(=O)OC2C(C)C(c3ccccc3)N(O)C(c3ccccc3)C2C)C(C)C(c2ccccc2)N(O)C1c1ccccc1 (stereo not drawn) | 190 to 191 °C
2 | CCCCCCCCCCCCCCCCOC(=O)c1cccc([N+](=O)[O-])c1 | 51 to 53 °C
3 | O=[N+]([O-])c1ccc(N2CCN(Cc3ccccc3)S2(=O)=O)cc1 | 164 to 165 °C
4 | O=C(NCc1ccccc1)NC(Cc1ccccc1)C(=O)O (stereo not drawn) | 115 to 117 °C
5 | CNC1COc2ccc3[nH]c(C(F)(F)F)nc3c2O1 (stereo not drawn) | 199 to 201 °C
6 | CCCCCCCCCCCCCCCCNC(=O)C=CC(=O)O | 46 to 49 °C
7 | O=C(O)Cc1cccc2c(=O)cc(-c3c(F)c(F)c(F)c(F)c3F)oc12 | 156 to 160 °C
8 | CCOC(=O)c1ccc(NC(=O)C(CSC(C)=O)Cc2ccccc2)cc1 (stereo not drawn) | 119 to 121 °C
9 | CCCCN1CCC(CNC(=O)c2ccc(N)n3cc(Cl)nc23)CC1 | 113 °C
10 | CC(C#N)(C#N)Cc1ccc(Cl)cc1 | 91.1 °C
11 | CCN(CC)CCNC(=O)c1cccc2cc3cccc(I)c3nc12 | 64 to 66 °C
12 | Oc1cnc2c(c1)CCC(c1ccc(Cl)c(Cl)c1)O2 (stereo not drawn) | 218 to 219 °C
13 | CCCCNC(=NC#N)Nc1ccc(C2=NNC(=O)CC2C)cc1 (stereo not drawn) | 184 to 186 °C
14 | O=c1[nH]c(CCCl)c(Cl)c(=O)[nH]1 | 225 °C
15 | CCOC(=O)c1cc(=O)c2cc(OCCC(C)C)ccc2s1 | 83 to 84 °C
16 | CN(Cc1ccccc1)CC1CN(c2c(F)cc3c(=O)c(C(=O)O)cn(C4CC4)c3c2F)CCO1 (stereo not drawn) | 155 to 157 °C
17 | CN(Cc1ccc2c(Br)c(O)ccc2c1)C(=O)c1cn(Cc2ccccc2)c2ccccc12 | 181 to 182 °C
18 | COc1cccc2c1nc(C(F)F)n2-c1nc(N2CCOCC2)nc(N(C)c2cncnc2)n1 | 214 to 217 °C
19 | O=C1CCOc2cc(F)ccc21 | 61 to 62 °C
20 | CC(C)c1cccc(C(C)C)c1NC(=O)NS(=O)(=O)Oc1c(C(C)C)cccc1C(C)C | 186 to 189 °C
21 | CSc1nn2c(N)cc(CN(C)C)nc2c1S(=O)(=O)c1ccccc1 | 216 to 218 °C
22 | COc1ccccc1Nc1ncc2cc(-c3c(Cl)cccc3Cl)c(=O)n(C)c2n1 | 200 to 201 °C
23 | COC(=O)C(Cc1ccc(OCCN(C)c2nc3ccccc3o2)cc1)Oc1ccc(Cl)cc1 (stereo not drawn) | 88 to 90 °C
24 | O=C1CCN(C(=O)c2cc(C(F)(F)F)cc(C(F)(F)F)c2)CC1 | 155 to 157 °C
25 | CCCCNc1nc(C)c(C#N)cc1C(=O)OCC | 61 to 63 °C

Row | Structure (SMILES) | melting point
26 | CCc1[nH]n(C2CCCC2)c2nc(-c3ccccc3O)nc(=O)c1-2 | 272 to 273 °C
27 | COC(=O)[C@@H](O)[C@H](CC(C)C)NC(=O)[C@H](Cc1c[nH]cn1)NC(=O)[C@H](Cc1cccc2ccccc12)NC(=O)OCc1ccccc1 | 110 to 114 °C
28 | CCOC(=O)C(C(=O)OCC)C1c2ccccc2C(F)(F)C(F)(F)c2ccccc21 | 144 to 146 °C
29 | c1ccc(C2CNc3c4c(nc5cccc(c35)O2)CCCC4)cc1 (stereo not drawn) | 194 to 195 °C
30 | Cc1ccc(N2C(=O)C(O)=C(C(=O)c3ccc(C(C)C)cc3)C2c2ccc(Cn3cccn3)cc2)nn1 (stereo not drawn) | 263 °C
31 | Cc1ccnc(S(=O)(=O)c2ccccc2)c1 | 128 to 129 °C
32 | COc1cccc([C@H]2O[C@H](Cc3nc(=O)o[nH]3)C(=O)N(CC(C)(C)C)c3ccc(Cl)cc32)c1OC | 130 to 133 °C
33 | COc1ccc(C(=O)c2ccccc2[N+](=O)[O-])cn1 | 94 to 95 °C
34 | CS(=O)(=O)c1ccc(-c2cnn(-c3cccc(Cl)c3)c(=O)c2Oc2ccc(F)cc2)cc1 | 211 to 213 °C
35 | O=C(CCc1ccc([N+](=O)[O-])cc1)c1c(O)c2cccnc2n(-c2ccccc2)c1=O | 215 to 217 °C
36 | Cc1cc2c(c(C)c1C)C(C)(C)CCC2(C)C | 79 to 82 °C
37 | CN1C(=O)C(C2=COc3ccccc3O2)=C(c2cn(C(=O)OC(C)(C)C)c3cc(OCc4ccccc4)ccc23)C1=O | 88 °C
38 | CCCc1c(Cl)nc(NC=O)nc1Cl | 92 to 94 °C
39 | O=C1Nc2ccccc2N2CCN(CCCc3ccncc3)CC12 (stereo not drawn) | 188 to 190 °C
40 | Cc1cccc2ncc(C(=O)NC3CCCC3)c(=O)n12 | 158 to 160 °C
41 | CCCCCC(=O)c1c(C)n(C(C)=O)c(=O)n1C(C)=O | 71 to 72 °C
42 | O=C(O)c1cccc([N+](=O)[O-])c1NCc1ccccc1Cl | 164 °C
43 | C[C@@H](N(CC(=O)O)C(=O)c1ccc(C(F)(F)F)cc1)[C@](O)(Cn1cncn1)c1ccc(Cl)cc1Cl (relative stereo) | 140 to 142 °C
44 | N#Cc1cnn(-c2c(Cl)cc(C(F)(F)F)cc2Cl)c1N | 165 to 167 °C
45 | CC1(C)OC(=O)Nc2ccc(-c3cc(F)cc(C(F)(F)F)c3)cc21 | 207 to 208 °C
46 | Clc1cc(Nc2nccc(-c3ccc(N4CCNCC4)nc3)n2)cc(Cl)c1Cl | 208 to 211 °C
47 | CNC(=O)C(=O)c1ccccc1Oc1ccccc1 | 94 to 95 °C
48 | CNC(=O)[C@@H]1C=CCN1S(=O)(=O)c1ccc(Cl)c(CBr)c1Cl | 66 °C
49 | Cc1cc(Cl)nnc1-c1ccc(Br)cc1 | 197 to 200 °C
50 | COC(=O)c1c(C(=O)OC)c(-c2ccc(OC)cc2)n2c1Cc1cc(OC)ccc1-2 | 240 to 242 °C

Row | Structure (SMILES) | melting point
51 | CS(=O)(=O)Nc1ccc(C#Cc2cnn3c(C(F)(F)F)cc(-c4ccc(C(F)(F)F)cc4)nc23)cn1 | 261 to 263 °C
52 | COc1ccc2c(Cl)ccnc2c1 | 86 to 88 °C
53 | OC[C@H](O)[C@H](O)[C@@H](O)[C@@H](O)C=NNc1ccccc1 | 198 to 199 °C
54 | COc1ccc(S(=O)(=O)C2(C(=O)O)CCN(Cc3ccc(F)cc3)CC2)cc1 | 154 °C
55 | Cc1ccc2c(c1)oc1c(C(=O)NN3CCOCC3)nn(-c3ccc(Cl)cc3Cl)c12 | 178 to 180 °C
56 | COc1cccc2c1cc(C)n2Cc1ccccc1 | 96 to 116 °C
57 | C=CCn1c(C)c(C)c2cnnc(OCc3cccc(F)c3)c21 | 85 to 86 °C
58 | CN1CCN(S(=O)(=O)c2cccc(NC(=O)c3cnn4c(C(F)F)cc(-c5ccc(Cl)cc5)nc34)c2)CC1 | 147 °C
59 | Nc1sc2c(c1C(=O)c1ccc(Br)s1)CCN(Cc1ccccc1)C2 | 87 to 89 °C
60 | COCCOCOc1c(C(C)(C)C)cc(-c2nc(Br)no2)cc1C(C)(C)C | 89 to 91 °C
61 | Cc1sc2c(c1C)C(c1ccc(Cl)cc1)=N[C@@H](CC(=O)NCCO)c1nnc(C)n1-2 | 254 to 255 °C
62 | Cc1c(O)ccnc1CSc1nc2ccc(F)cc2[nH]1 | 232 to 233 °C
63 | COc1cc2c(cc1C(F)(F)F)N(C(=O)N(c1cccc(C)c1)c1ncon1)CC2 | 203 to 204 °C
64 | C=Cc1cc(C)cc(C)c1C1=C(O)C2(CCN(OC)CC2)N(OC2CCCO2)C1=O (stereo not drawn) | 132 to 135 °C
65 | CCC(=O)c1c(OC)cccc1OC | 43 to 45 °C
66 | CCC(CC)n1cc(C)nc(Nc2c(C)cc(C)cc2C)c1=O | 109 °C
67 | CCOC(=O)c1c[nH]c2c(C#N)c(CCCNC)nn2c1=O | 285 to 287 °C
68 | CCCc1nn(C)c2c(=O)n(CCOc3ccc(NC(C)=O)cc3)c(CC)nc12 | 100 to 104 °C
69 | COc1cnc(OC)n2nc(NS(=O)(=O)c3c(F)cccc3C(F)(F)F)nc12 | 201 to 203 °C
70 | CC(=O)N1CCN(c2ccc(Nc3nccc(-c4sc(N)nc4C)n3)cc2)CC1 | 267 to 269 °C
71 | O=C(O)Cc1ccc(Oc2ccc([N+](=O)[O-])cc2)cc1 | 132 to 136 °C
72 | O=S(=O)(c1ccc(N2CCCCCC2)cc1)N1CCCC1=S | 172 to 173 °C
73 | CCCc1ccnc2c(=O)[nH]c(-c3cc(S(=O)(=O)N4CCN(CCO)CC4)ccc3OCC)nc12 | 187 to 188 °C
74 | O=C1Nc2cccc(-c3ccc(O)cc3)c2/C1=C/c1ccc[nH]1 | 271 to 273 °C
75 | Cc1oc(=O)oc1Cn1cc[nH]c(=O)c1=O | 225 to 226 °C

Row | Structure (SMILES) | melting point
76 | O=C(Nc1nnn[nH]1)c1cnc2sc3ccc(F)cc3n2c1=O | > 300 °C
77 | COc1ccc2nc(S(=O)Cc3nccc(OCC(F)(F)F)c3OC)[nH]c2c1 (stereo not drawn) | 36 to 46 °C
78 | Oc1ccc2c(c1)CCCC(c1ccccc1)=C2c1ccc(OCCCCCSCc2ccccc2)cc1 | 178 to 186 °C
79 | Cc1cc(-c2ccc(F)cc2)ccc1C(=O)Nc1ccc2cc(CN3CCCC3)cnc2c1C | 200 to 203 °C
80 | CC(=O)Oc1ccc2c(c1)CCC1C2CCC2(C)C(OC(=O)c3ccccc3)CCC12 (stereo not drawn) | 148 to 150 °C
81 | COC(=O)c1cccc(NC(=O)N(C)C)c1 | 110 °C
82 | CC(=O)ON1C(C)(C)CC(OC(=O)c2ccccc2)CC1(C)C | 110 to 112 °C
83 | CCN(CC)CCn1c(=O)c2cnc3c(cnn3CC)c2n2nc(C)cc12 | 90 to 92 °C
84 | O=c1[nH]c2ccc3cccnc3c2o1 | > 300 °C
85 | COc1cc(Br)c(C=O)cc1OCc1ccccc1 | 140 to 141 °C
86 | Cn1cc(C(=O)NCc2ccc(Cl)cc2)c(=O)c2cc(I)sc21 | 236 to 237 °C
87 | CCOC(=O)c1sc(N2CCN(Cc3ccc(Cl)cc3)C2=O)nc1C | 117 to 119 °C
88 | N#CC1=C(c2ccccc2)Nc2n[nH]cc2C1c1cccc(F)c1F (stereo not drawn) | 165 °C
89 | CCCOc1ccccc1-c1nc2nc(NCC)ncc2c(=O)[nH]1 | 181 to 182 °C
90 | CC(C)(C)OC(=O)N1CCC(c2nc3cc(-c4ccc(C(N)=O)c(Cl)c4)ccc3o2)CC1 | 169 to 171 °C
91 | Cc1ccc(C(=O)c2cnoc2C2CC2)cc1S(C)(=O)=O | 126 to 128 °C
92 | CN1CCc2nc3cc(Cl)ccc3c(-c3cccs3)c2C1 | 131 to 132 °C
93 | CNC(=O)n1sc(OC2CCCCC2)nc1=O | 121 °C
94 | Clc1ccc(C(Br)Br)c(C(Br)Br)c1 | 108 to 111 °C
95 | COC(=O)CC(O)CCSc1cc(C(C)(C)C)c(O)c(C(C)(C)C)c1 (stereo not drawn) | 77 to 80 °C
96 | O=C(O)Cc1ccccc1Oc1cccc(F)c1 | 81 to 84 °C
97 | Cn1ncc2c1-c1c(Oc3ccc(OCc4ccc(Cl)cc4)cc3)sc(C(N)=O)c1CC2 | 216 to 217 °C
98 | CS(=O)(=O)N(Cc1ccco1)CC(O)(Cn1cncn1)c1ccc(Cl)cc1Cl (stereo not drawn) | 114 to 115 °C
